According to US10301664B2, “Repurposing non-antimicrobial drugs and clinical molecules to treat bacterial infections” (Purdue Research Foundation, priority 2015, dated 2019):
In brackets after ≈: the same amount, converted by molar mass. Where two headings read alike, the source gives them in different places.

Assays:
[1] = tested on: Vancomycin-resistant S. aureus (VRSA); experiment: MIC and MBC against vancomycin-resistant S. aureus clinical isolates (CLSI); type: cell-based
[2] = tested on: Methicillin resistant S. aureus (MRSA); experiment: MIC and MBC against methicillin resistant S. aureus clinical isolates (CLSI); type: cell-based; settings: Staphylococcus aureus
[3] = tested on: Methicillin-sensitive S. aureus (MSSA); experiment: MIC and MBC against methicillin-sensitive S. aureus isolates (CLSI); type: cell-based; settings: Staphylococcus aureus
[4] = tested on: Vancomycin-intermediate S. aureus (VISA); experiment: MIC and MBC against vancomycin-intermediate S. aureus isolates (CLSI); type: cell-based; settings: Staphylococcus aureus
[5] = tested on: S. epidermidis NRS 101; experiment: MIC and MBC against S. epidermidis (CLSI); type: cell-based; settings: Staphylococcus epidermidis, NRS101
[6] = tested on: E. fecalis ATCC 51229 (VRE); experiment: MIC and MBC against E. fecalis VRE (CLSI); type: cell-based; settings: Enterococcus
Description: The NIH Clinical Collections 1 and 2 (http://www.nihclinicalcollection.com) containing 727 FDA approved drugs and small molecules previously used in human clinical trials with known safety profiles were screened against ESKAPE pathogens. The library was initially screened at a single concentration of 16 μM to identify “hit” non-antibacterial drugs. Once the antimicrobial activity of the drugs was confirmed, we determined their MICs and minimum bactericidal concentrations (MBCs) according to the Clinical and Laboratory Standards Institute (CLSI).

[7] = tested on: E. faecium ATCC 700221 (VRE); experiment: MIC and MBC against E. faecium VRE (CLSI), Table 1; type: cell-based; settings: Enterococcus faecium
[8] = tested on: clinical isolates of S. aureus; experiment: MIC90 over clinical isolates of S. aureus; type: cell-based; settings: Staphylococcus aureus, Table 1, read-out: MIC90 (MIC at which 90% of clinical isolates of S. aureus were inhibited)
[9] = tested on: MRSA USA300; experiment: Library hits: MIC/MBC against MRSA; type: cell-based, Staphylococcus aureus; settings: Staphylococcus aureus
[10] = tested on: vancomycin resistant E. faecium ATCC 700221 (VRE); experiment: Library hits: MIC/MBC against VRE; type: cell-based; settings: VRE
[11] = tested on: VISA and VRSA (14) clinical isolates; experiment: MIC against Gram +ve clinical isolates: VISA and VRSA; type: cell-based, S. aureus; settings: Staphylococcus aureus
[12] = tested on: E.. coli O157:H7; experiment: MIC against G-ve with and without colistin: E. coli O157:H7; type: cell-based
[13] = tested on: K. pneumonia; experiment: MIC against G-ve with and without colistin: K. pneumonia; type: cell-based; settings: without colistin
[14] = tested on: MRSA USA200; type: in vivo, BALB/c mice; settings: oral, EB 30 mg/kg or FdUrd 25 mg/kg once daily for three days, monitored six days
Description: Animal procedures were approved by the Purdue University Animal Care and Use Committee (PACUC) (protocol no. 1311000988). Eight-week-old female BALB/c mice (Harlan Laboratories, Indianapolis, Ind.) were used for this study. Mice were rendered neutropenic by treatment with cyclophosphamide intraperitoneally (IP) 150 and 100 mg/kg at four days and one day before infection, respectively. Neutropenic mice were inoculated IP with 8×10^8 MRSA USA200. At one hour after infection, the mice were divided into five groups (n=10 per group), and two groups were treated orally with either EB 30 mg/kg or FdUrd 25 mg/kg. Two groups were treated IP with either EB 30 mg/kg or FdUrd 25 mg/kg. One group was used as a control with no treatment. Treatment was continued once daily for two more days (animals received three doses total). Mortality was monitored four times daily for six days, and the cumulative percent survival was determined. The data were subjected to statistical analysis using Kaplan-Meier survival curves. A log rank test was performed for 95% confidence intervals by GraphPad Prism 6.0 (GraphPad Software, La Jolla, Calif.).

SMILES: O=c1c2ccccc2[se]n1-c1ccccc1 [Ebselen]
- MIC ([1]; Staphylococcus aureus, VRSA): 0.125 µg/mL (≈ 0.456 µM)
- MBC ([1]; Staphylococcus aureus, VRSA, VRSA1, read-out: MBC): 0.25 µg/mL (≈ 0.912 µM)
- MIC ([1]; Staphylococcus aureus, VRSA, VRSA1, read-out: MIC): 0.25 µg/mL (≈ 0.912 µM)
- MBC ([1]; Staphylococcus aureus, VRSA, VRSA2, read-out: MBC): 0.25 µg/mL (≈ 0.912 µM)
- MIC ([1]; Staphylococcus aureus, VRSA, VRSA2, read-out: MIC): 0.25 µg/mL (≈ 0.912 µM)
- MBC ([1]; Staphylococcus aureus, VRSA, VRSA3a, read-out: MBC): 0.25 µg/mL (≈ 0.912 µM)
- MIC ([1]; Staphylococcus aureus, VRSA, VRSA3a, read-out: MIC): 0.25 µg/mL (≈ 0.912 µM)
- MBC ([1]; Staphylococcus aureus, VRSA, VRSA3b, read-out: MBC): 1 µg/mL (≈ 3.65 µM)
- MIC ([1]; Staphylococcus aureus, VRSA, VRSA3b, read-out: MIC): 0.25 µg/mL (≈ 0.912 µM)
- MBC ([1]; Staphylococcus aureus, VRSA, VRSA4): 0.125 µg/mL (≈ 0.456 µM)
- MBC ([1]; Staphylococcus aureus, VRSA, VRSA5, read-out: MBC): 0.25 µg/mL (≈ 0.912 µM)
- MIC ([1]; Staphylococcus aureus, VRSA, VRSA5, read-out: MIC): 0.25 µg/mL (≈ 0.912 µM)
- MBC ([1]; Staphylococcus aureus, VRSA, VRSA6, read-out: MBC): 0.5 µg/mL (≈ 1.82 µM)
- MIC ([1]; Staphylococcus aureus, VRSA, VRSA6, read-out: MIC): 0.25 µg/mL (≈ 0.912 µM)
- MBC ([1]; Staphylococcus aureus, VRSA, VRSA7, read-out: MBC): 0.5 µg/mL (≈ 1.82 µM)
- MIC ([1]; Staphylococcus aureus, VRSA, VRSA7, read-out: MIC): 0.5 µg/mL (≈ 1.82 µM)
- MBC ([1]; Staphylococcus aureus, VRSA, VRSA8): 0.125 µg/mL (≈ 0.456 µM)
- MBC ([1]; Staphylococcus aureus, VRSA, VRSA9, read-out: MBC): 0.5 µg/mL (≈ 1.82 µM)
- MIC ([1]; Staphylococcus aureus, VRSA, VRSA9, read-out: MIC): 0.25 µg/mL (≈ 0.912 µM)
- MBC ([1]; Staphylococcus aureus, VRSA, VRSA10, read-out: MBC): 0.25 µg/mL (≈ 0.912 µM)
- MIC ([1]; Staphylococcus aureus, VRSA, VRSA10, read-out: MIC): 0.25 µg/mL (≈ 0.912 µM)
- MBC ([1]; Staphylococcus aureus, VRSA, VRSA11b, read-out: MBC): 0.25 µg/mL (≈ 0.912 µM)
- MIC ([1]; Staphylococcus aureus, VRSA, VRSA11b, read-out: MIC): 0.25 µg/mL (≈ 0.912 µM)
- MBC ([1]; Staphylococcus aureus, VRSA, VRSA12, read-out: MBC): 0.5 µg/mL (≈ 1.82 µM)
- MIC ([1]; Staphylococcus aureus, VRSA, VRSA12, read-out: MIC): 0.25 µg/mL (≈ 0.912 µM)
- MBC ([1]; Staphylococcus aureus, VRSA, VRSA13, read-out: MBC): 0.25 µg/mL (≈ 0.912 µM)
- MIC ([1]; Staphylococcus aureus, VRSA, VRSA13, read-out: MIC): 0.25 µg/mL (≈ 0.912 µM)
- MIC ([1]; VRSA8): 0.125/0.125 mg/L
- MIC ([1]; VRSA11a): 0.125 µg/mL (≈ 0.456 µM)
- MBC ([2]; MRSA / NRS 70, read-out: MBC): 0.25 µg/mL (≈ 0.912 µM)
- MIC ([2]; MRSA / NRS 70, read-out: MIC): 0.25 µg/mL (≈ 0.912 µM)
- MBC ([2]; MRSA / NRS 71, read-out: MBC): 0.25 µg/mL (≈ 0.912 µM)
- MIC ([2]; MRSA / NRS 71, read-out: MIC): 0.25 µg/mL (≈ 0.912 µM)
- MBC ([2]; MRSA / NRS 100, read-out: MBC): 0.5 µg/mL (≈ 1.82 µM)
- MIC ([2]; MRSA / NRS 100, read-out: MIC): 0.25 µg/mL (≈ 0.912 µM)
- MBC ([2]; MRSA / NRS 108, read-out: MBC): 0.25 µg/mL (≈ 0.912 µM)
- MIC ([2]; MRSA / NRS 108, read-out: MIC): 0.25 µg/mL (≈ 0.912 µM)
- MBC ([2]; MRSA / NRS 119): 0.25 µg/mL (≈ 0.912 µM)
- MIC ([2]; MRSA / NRS 119): 0.125 µg/mL (≈ 0.456 µM)
- MBC ([2]; MRSA / NRS 123, read-out: MBC): 0.5 µg/mL (≈ 1.82 µM)
- MIC ([2]; MRSA / NRS 123, read-out: MIC): 0.25 µg/mL (≈ 0.912 µM)
- MBC ([2]; MRSA / NRS 194, read-out: MBC): 1 µg/mL (≈ 3.65 µM)
- MIC ([2]; MRSA / NRS 194, read-out: MIC): 0.25 µg/mL (≈ 0.912 µM)
- MBC ([2]; MRSA / NRS 382): 0.125 µg/mL (≈ 0.456 µM)
- MIC ([2]; MRSA / NRS 382): 0.125 µg/mL (≈ 0.456 µM)
- MBC ([2]; MRSA / NRS 383): 0.125 µg/mL (≈ 0.456 µM)
- MIC ([2]; MRSA / NRS 383): 0.125 µg/mL (≈ 0.456 µM)
- MBC ([2]; MRSA / NRS 384): 0.125 µg/mL (≈ 0.456 µM)
- MIC ([2]; MRSA / NRS 384): 0.125 µg/mL (≈ 0.456 µM)
- MBC ([2]; MRSA / NRS 385, NRS 385, read-out: MBC): 1 µg/mL (≈ 3.65 µM)
- MIC ([2]; MRSA / NRS 385, NRS 385, read-out: MIC): 0.5 µg/mL (≈ 1.82 µM)
- MBC ([2]; MRSA / NRS 386): 1 µg/mL (≈ 3.65 µM)
- MIC ([2]; MRSA / NRS 386): 0.125 µg/mL (≈ 0.456 µM)
- MBC ([2]; MRSA / NRS 387): 0.25 µg/mL (≈ 0.912 µM)
- MIC ([2]; MRSA / NRS 387): 0.125 µg/mL (≈ 0.456 µM)
- MBC ([2]; MRSA / NRS 483): 0.5 µg/mL (≈ 1.82 µM)
- MIC ([2]; MRSA / NRS 483): 0.125 µg/mL (≈ 0.456 µM)
- MBC ([2]; MRSA / NRS 484, NRS 484, read-out: MBC): 0.25 µg/mL (≈ 0.912 µM)
- MIC ([2]; MRSA / NRS 484, NRS 484, read-out: MIC): 0.25 µg/mL (≈ 0.912 µM)
- MBC ([3]; MSSA / NRS 72, read-out: MBC): 0.5 µg/mL (≈ 1.82 µM)
- MIC ([3]; MSSA / NRS 72, read-out: MIC): 0.25 µg/mL (≈ 0.912 µM)
- MBC ([3]; MSSA / NRS 77, read-out: MBC): 1 µg/mL (≈ 3.65 µM)
- MIC ([3]; MSSA / NRS 77, read-out: MIC): 0.25 µg/mL (≈ 0.912 µM)
- MBC ([3]; MSSA / NRS 846): > 64 µg/mL
- MIC ([3]; MSSA / NRS 846): 0.125 µg/mL (≈ 0.456 µM)
- MBC ([3]; MSSA / NRS 860, read-out: MBC): 0.25 µg/mL (≈ 0.912 µM)
- MIC ([3]; MSSA / NRS 860, read-out: MIC): 0.25 µg/mL (≈ 0.912 µM)
- MBC ([4]; NRS 1 / VISA): 0.125 µg/mL (≈ 0.456 µM)
- MIC ([4]; NRS 1 / VISA): 0.125 µg/mL (≈ 0.456 µM)
- MBC ([4]; NRS 37 / VISA): 0.125 µg/mL (≈ 0.456 µM)
- MIC ([4]; NRS 37 / VISA): 0.125 µg/mL (≈ 0.456 µM)
- MBC [5]: 0.5 µg/mL (≈ 1.82 µM)
- MIC [5]: 0.5 µg/mL (≈ 1.82 µM)
- MBC [6]: 0.5 µg/mL (≈ 1.82 µM)
- MIC [6]: 0.5 µg/mL (≈ 1.82 µM)
- MBC [7]: 1 µg/mL (≈ 3.65 µM)
- MIC [7]: 0.5 µg/mL (≈ 1.82 µM)
- MIC90 [8]: 0.25 µg/mL (≈ 0.912 µM)
- MBC ([9]; read-out: MBC): 0.5 µM (≈ 0.137 µg/mL)
- MIC ([9]; read-out: MIC): < 0.5 µM
- MBC [10]: 1 µM (≈ 0.274 µg/mL)
- MIC ([10]; read-out: MIC): 0.5 µM (≈ 0.137 µg/mL)
- MIC50 [11]: 0.125 µg/mL (≈ 0.456 µM)
- MIC50 ([11]; read-out: MIC50): 0.25 µg/mL (≈ 0.912 µM)
- MIC, colistin (+) ([12]; E. coli O157:H7, with sub-inhibitory colistin 0.0625 μg/ml): 0.125 µg/mL (≈ 0.456 µM)
- MIC, colistin (−) ([12]; E. coli O157:H7, without colistin): 32 µg/mL (≈ 117 µM)
- MIC, colistin (−) [13]: 64 µg/mL (≈ 233 µM)
- mice survival compared to that of control [14]: 60%
